Assay results taken from PubChem BioAssay AID2060901 (Molecular Pharmacology Branch, DTP, NCI, 2025).

System: 422866-222-R5-J1-PDC complex spheroids viability
Assay: Anticancer human tumor 422866-222-R5-J1-PDC patient-derived pancreatic adenocarcinoma cell line growth inhibition [RAS]
Details: for IC50: curve of first compound; for viability, T/C: stronger effect = lower value
Outline: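 Multi-cell-type spheroids: tumor cells plus HUVEC endothelial cells and mesenchymal stem cells. RAS-pathway inhibitors were combined with targeted agents, each dosed in half-log steps down from clinical Cmax, or from 10 microM when Cmax was unknown.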
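Note: spheroids exposed to compounds for 7 days.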
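Throughout, for viability, T/C: 100% = DMSO vehicle control viability.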

For `CC(C)NCC(C(=O)N1CCN(c2ncnc3c2C(C)CC3O)CC1)c1ccc(Cl)cc1` (centres undefined) + CCn1c(-c2cccnc2C(C)OC)c2c3cc(ccc31)N1CCOC(CC(NC(=O)C(C(C)C)N(C)C(=O)C3(F)CCN(C(=O)C#CC(C)(C)N(C)C)CC3)C(=O)N3CCCC(N3)C(=O)OCC(C)(C)C2)C1, the IC50 (second compound 0.000949 µM) was < 0.0316 µM, the IC50 (second compound 0.003 µM) was < 0.0316 µM and the IC50 (second compound 0.00949 µM) was < 0.0316 µM. The IC50 (second compound 0.03 µM) was < 0.0316 µM, the IC50 (second compound 0.0949 µM) was < 0.0316 µM and the IC50 (second compound 0.3 µM) was < 0.0316 µM. For the same molecule, the viability, T/C (second compound 0.000949 µM, first compound 0.0316 µM) was 23%, the viability, T/C (second compound 0.000949 µM, first compound 0.1 µM) was 23.2% and the viability, T/C (second compound 0.000949 µM, first compound 0.316 µM) was 17.5%. The viability, T/C (second compound 0.000949 µM, first compound 1 µM) was 25%, the viability, T/C (second compound 0.000949 µM, first compound 3.16 µM) was 30.9% and the viability, T/C (second compound 0.000949 µM, first compound 10 µM) was 29.7%. For the same molecule, the viability, T/C (second compound 0.003 µM, first compound 0.0316 µM) was 22.5%, the viability, T/C (second compound 0.003 µM, first compound 0.1 µM) was 17.6% and the viability, T/C (second compound 0.003 µM, first compound 0.316 µM) was 14.4%. It also gave a viability, T/C (second compound 0.003 µM, first compound 1 µM) of 14.7%, a viability, T/C (second compound 0.003 µM, first compound 3.16 µM) of 14.4% and a viability, T/C (second compound 0.003 µM, first compound 10 µM) of 16.7%. The viability, T/C (second compound 0.00949 µM, first compound 0.0316 µM) was 21.1%, the viability, T/C (second compound 0.00949 µM, first compound 0.1 µM) was 18.9% and the viability, T/C (second compound 0.00949 µM, first compound 0.316 µM) was 13.8%. It also gave a viability, T/C (second compound 0.00949 µM, first compound 1 µM) of 13.3%, a viability, T/C (second compound 0.00949 µM, first compound 3.16 µM) of 14.8% and a viability, T/C (second compound 0.00949 µM, first compound 10 µM) of 14.6%. The viability, T/C (second compound 0.03 µM, first compound 0.0316 µM) was 17.5%, the viability, T/C (second compound 0.03 µM, first compound 0.1 µM) was 16% and the viability, T/C (second compound 0.03 µM, first compound 0.316 µM) was 12.9%. The viability, T/C (second compound 0.03 µM, first compound 1 µM) was 12.1%, the viability, T/C (second compound 0.03 µM, first compound 3.16 µM) was 14.2% and the viability, T/C (second compound 0.03 µM, first compound 10 µM) was 16.2%. The viability, T/C (second compound 0.0949 µM, first compound 0.0316 µM) was 15.2%, the viability, T/C (second compound 0.0949 µM, first compound 0.1 µM) was 12% and the viability, T/C (second compound 0.0949 µM, first compound 0.316 µM) was 11.8%. For the same molecule, the viability, T/C (second compound 0.0949 µM, first compound 1 µM) was 13.2%, the viability, T/C (second compound 0.0949 µM, first compound 3.16 µM) was 15.3% and the viability, T/C (second compound 0.0949 µM, first compound 10 µM) was 14.1%. For the same molecule, the viability, T/C (second compound 0.3 µM, first compound 0.0316 µM) was 13.8%, the viability, T/C (second compound 0.3 µM, first compound 0.1 µM) was 13.4% and the viability, T/C (second compound 0.3 µM, first compound 0.316 µM) was 11.3%. The viability, T/C (second compound 0.3 µM, first compound 1 µM) was 11.4%, the viability, T/C (second compound 0.3 µM, first compound 3.16 µM) was 14.7% and the viability, T/C (second compound 0.3 µM, first compound 10 µM) was 11.6%.

In the case of `CC1(C)CCC(Nc2ncc(C(F)(F)F)c(-c3c[nH]c4c(P(C)(C)=O)c(C#N)ccc34)n2)CN1` (centres undefined) + CCn1c(-c2cccnc2C(C)OC)c2c3cc(ccc31)N1CCOC(CC(NC(=O)C(C(C)C)N(C)C(=O)C3(F)CCN(C(=O)C#CC(C)(C)N(C)C)CC3)C(=O)N3CCCC(N3)C(=O)OCC(C)(C)C2)C1, the IC50 (second compound 0.000949 µM) is reported as < 0.000949 µM, the IC50 (second compound 0.003 µM) is reported as < 0.000949 µM and the IC50 (second compound 0.00949 µM) is reported as < 0.000949 µM. The IC50 (second compound 0.03 µM) was < 0.000949 µM, the IC50 (second compound 0.0949 µM) was < 0.000949 µM and the IC50 (second compound 0.3 µM) was < 0.000949 µM. The viability, T/C (second compound 0.000949 µM, first compound 0.000949 µM) was 27.9%, the viability, T/C (second compound 0.000949 µM, first compound 0.003 µM) was 27% and the viability, T/C (second compound 0.000949 µM, first compound 0.00949 µM) was 30.9%. The viability, T/C (second compound 0.000949 µM, first compound 0.03 µM) was 31.1%, the viability, T/C (second compound 0.000949 µM, first compound 0.0949 µM) was 31% and the viability, T/C (second compound 0.000949 µM, first compound 0.3 µM) was 32.6%. The viability, T/C (second compound 0.003 µM, first compound 0.000949 µM) was 25.2%, the viability, T/C (second compound 0.003 µM, first compound 0.003 µM) was 27% and the viability, T/C (second compound 0.003 µM, first compound 0.00949 µM) was 27.6%. The viability, T/C (second compound 0.003 µM, first compound 0.03 µM) was 24.8%, the viability, T/C (second compound 0.003 µM, first compound 0.0949 µM) was 28.6% and the viability, T/C (second compound 0.003 µM, first compound 0.3 µM) was 26.9%. It also gave a viability, T/C (second compound 0.00949 µM, first compound 0.000949 µM) of 24.1%, a viability, T/C (second compound 0.00949 µM, first compound 0.003 µM) of 24.4% and a viability, T/C (second compound 0.00949 µM, first compound 0.00949 µM) of 26.1%. It also gave a viability, T/C (second compound 0.00949 µM, first compound 0.03 µM) of 26.2%, a viability, T/C (second compound 0.00949 µM, first compound 0.0949 µM) of 26.1% and a viability, T/C (second compound 0.00949 µM, first compound 0.3 µM) of 27.2%. The viability, T/C (second compound 0.03 µM, first compound 0.000949 µM) was 24.2%, the viability, T/C (second compound 0.03 µM, first compound 0.003 µM) was 25.8% and the viability, T/C (second compound 0.03 µM, first compound 0.00949 µM) was 24.2%. For the same molecule, the viability, T/C (second compound 0.03 µM, first compound 0.03 µM) was 26.3%, the viability, T/C (second compound 0.03 µM, first compound 0.0949 µM) was 28.2% and the viability, T/C (second compound 0.03 µM, first compound 0.3 µM) was 28.5%. The viability, T/C (second compound 0.0949 µM, first compound 0.000949 µM) was 20.1%, the viability, T/C (second compound 0.0949 µM, first compound 0.003 µM) was 22.7% and the viability, T/C (second compound 0.0949 µM, first compound 0.00949 µM) was 25.4%. The viability, T/C (second compound 0.0949 µM, first compound 0.03 µM) was 23.6%, the viability, T/C (second compound 0.0949 µM, first compound 0.0949 µM) was 26.7% and the viability, T/C (second compound 0.0949 µM, first compound 0.3 µM) was 25.6%. The viability, T/C (second compound 0.3 µM, first compound 0.000949 µM) was 20%, the viability, T/C (second compound 0.3 µM, first compound 0.003 µM) was 22.8% and the viability, T/C (second compound 0.3 µM, first compound 0.00949 µM) was 24.2%. It also gave a viability, T/C (second compound 0.3 µM, first compound 0.03 µM) of 24.8%, a viability, T/C (second compound 0.3 µM, first compound 0.0949 µM) of 28.1% and a viability, T/C (second compound 0.3 µM, first compound 0.3 µM) of 24.6%.
